Measurements published in PubChem BioAssay (NCI).
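Values below derive from 48-hour exposures of cells grown in 96-well plates, with endpoints linearly interpolated between the two concentrations bracketing the appropriate inhibition level. At the GI50, growth is halved. TGI is the concentration that stops growth completely.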

Legend:
Assay in all cases: NCI-60 cell line screen, 48 h
[1] = test system: RXF 393 renal
[2] = test system: SW-620 colon
[3] = test system: SN12C renal
[4] = test system: MDA-MB-435
[5] = test system: BT-549 breast
[6] = test system: 786-0 renal
[7] = test system: NCI-H23 lung
[8] = test system: IGROV1 ovarian
[9] = test system: DU-145 prostate
[10] = test system: HCC-2998 colon
[11] = test system: M14 melanoma

Compound	TGI [1] [µM]	TGI [2] [µM]	TGI [3] [µM]	TGI [4] [µM]	TGI [5] [µM]	TGI [6] [µM]	TGI [7] [µM]	TGI [8] [µM]	TGI [9] [µM]	TGI [10] [µM]	TGI [11] [µM]	GI50 [1] [µM]	GI50 [2] [µM]	GI50 [3] [µM]	GI50 [4] [µM]	GI50 [7] [µM]	GI50 [8] [µM]	GI50 [9] [µM]	GI50 [10] [µM]
C=CCN1CC2CN=NC2(C#N)C1 (stereo not drawn)	> 100	> 100	> 100	> 100	> 100	> 100	> 100	> 100	> 100	> 100									
O=C1CCC2=C(CCC2)N1CCc1ccc2c(c1)OCO2	52.5	> 100	> 100		85.4	> 100	> 100	> 100	> 100	> 100	> 100								
C=C(C)CC1=C(C(=S)NCCO[Si](C)(C)C(C)(C)C)C(OCC)(OCC)C1=O	31.5	47	42.2	41.9		33.1	40.5	31.3	76.3		35								
CC(/C=N/NC1=NCCCCN1)=N\NC1=NCCCCN1	> 100	> 100	> 100	> 100	> 100	> 100	> 100	> 100		> 100	38.7								
Cc1ccnc(NC(=S)Nc2ccccc2Cl)c1	> 100	> 100	> 100	> 100	> 100	> 100		> 100	> 100		> 100								
O=C(NCCO)c1c(O)c2ccccc2[nH]c1=O	> 100	> 100	> 100	> 100	> 100	> 100	> 100	> 100	> 100	> 100									
CCCCNC(=S)/N=C/c1c(O)c2ccccc2oc1=O		> 100	> 100	> 100		> 100	> 100	> 100	> 100	> 100	> 100								
O=C(c1ccc(Cl)cc1)N(C(=S)N1CCN(c2ccccn2)CC1)c1ccccc1	> 100	> 100	> 100			> 100	> 100	> 100			> 100								
C=CCC1NCCC2=C1C(S(=O)(=O)c1ccc(C)cc1)c1ccccc12 (stereo not drawn)	17.6	29.4	28.5	17.5		25.7	36.4	23.3	24.3	3.6	26.8								
C[C@]12CCC(=O)C=C1CC[C@@H]1[C@@H]2C(=O)C[C@@]2(C)[C@H]1CC[C@]2(O)C(=O)CO	> 100	> 100	> 100			> 100	> 100	> 100		> 100	> 100								
COC(=O)c1ccc(C)cc1C1CN=NC12Cc1cc(C)c(C)cc1C2=O (stereo not drawn)	> 100	> 100	> 100	96.6		> 100	> 100	> 100	> 100	81.7	> 100								
Cc1nnc(N)nc1/C=C\c1cccs1	40.8	> 100		74.9	> 100	52.1	55.1	28.7	> 100	30.9	36.9								
O=C1C[C@H](c2ccccc2)C2(C(=O)c3ccccc3C2=O)[C@@H](c2ccccc2)C1	> 100		> 100		71.9		> 100	> 100	> 100	> 100	95.9								
O=C(Nc1ccc2ccccc2c1)Nn1cnnc1		> 100		> 100	> 100	> 100	> 100	> 100	> 100	> 100	> 100								
O=C1C=CC2(O[C@@H](Cc3ccccc3)[C@H](Cc3ccccc3)O2)C(SC(=O)c2ccccc2)C1 (stereo partly drawn)	0.325	0.858	3.97	5.46	1.11	0.399	4.67	2.54	11.8		2.99								
Cc1cc2nc3n(c2cc1C)C(c1c(F)cccc1F)SC3 (stereo not drawn)	38.8	50.9	41.9	30.9	43.7	43.4	38.2	> 10		47.8	40.8								
CC(=O)c1ccc(NC(=O)/C(=N\NC(N)=O)C(C#N)CC(C)(C)C=O)cc1 (stereo not drawn)	> 100	> 100	> 100				> 100	> 100		> 100	> 100								
COc1ccc(N2CCN(c3ccc4c(c3)NCC(=O)N4)CC2)cc1		> 100	> 100	> 100	> 100	> 100	> 100	> 100	> 100	> 100	> 100								
Oc1c(I)cc(I)cc1CNCCCN(Cc1ccccn1)Cc1ccccn1	1.66	2.41	2.12	2			3.22	1.65	4.63	1.91		0.866	1.04	0.99	0.997	1.16	0.866	1.51	0.983
O=C(NN=C1CCCCC1)Nc1ccccc1Cl		> 100	> 100	47.5	> 100	> 100	> 100	> 100	> 100	> 100	> 100								
COc1ccc(C2C(C(=O)O)=C(COC(C)=O)Oc3cc4c(cc32)OCO4)cc1 (stereo not drawn)	> 100	> 100	> 100				> 100	> 100			> 100								
C=C1C(=O)[C@]23[C@H](O)[C@H]1CC[C@H]2[C@@]12CO[C@@]3(O)C[C@@H]1C(C)(C)CC[C@@H]2O	11.5	13.8	> 25	7.61	8.33	> 25	> 25	20.9	> 25	23.4									
